According to US6914045B2, “Glycopeptide antibiotics” (Wyeth Holdings Corporation, priority 2001, dated 2005):

Experiments:
Test in all cases: in vitro antibacterial evaluation, MIC by broth dilution
Format in all cases: cell-based
Enterococcus sp. = details: broth dilution, 18 hours at 35° C.
How it was run: (§1)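 MIC = lowest antibiotic concentration preventing visible growth; inoculum 5×10^5 CFU/mL; drug range 64-0.06 μg/mL; Muller-Hinton II […]; NCCLS M7-A2 guidance.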

Staphylococcus sp. = details: broth dilution, 18 hours at 35° C.
How it was run: as §1

Streptococcus sp. = details: broth dilution, 18 hours at 35° C.
How it was run: as §1

Escherichia coli = details: 18 hours at 35° C.

CC(c1ccccc1)C1NC(=O)CNC(=O)C(CO)NC(=O)C(C(O)C2CNC(=N)N2C2OC(CO)C(O)C(O)C2O)NC(=O)C(C(O)C2CNC(=N)N2)NC(=O)C(Cc2ccc(OC3OC(CO)C(OC4OC5COC6(CC(C)(C)CC(C)(C)C6)OC5C(O)C4O)C(O)C3O)cc2)NC1=O (stereo not drawn) [Example 207]
0.5 µg/mL: MIC Coagulase Negative Staphylococcus (GC 4548) (Staphylococcus sp.; strain GC 4548) | MIC Coagulase Negative Staphylococcus (GC 4549) (Staphylococcus sp.; strain GC 4549)
32 µg/mL: MIC Escherichia coli (ATCC 25922) (Escherichia coli)
4 µg/mL: MIC Enterococcus faecalis (ATCC 29212) (Enterococcus sp.) | MIC Enterococcus faecalis (GC 2242) (Enterococcus sp.) | MIC Enterococcus faecalis (GC 4552) (Enterococcus sp.) | MIC Enterococcus faecalis (GC 4553) (Enterococcus sp.) | MIC Enterococcus faecalis (GC 4554) (Enterococcus sp.) | MIC Enterococcus faecium (GC 2243) (Enterococcus sp.) | MIC Enterococcus faecium (GC 4556) (Enterococcus sp.) | MIC Enterococcus faecalis (ATCC 29212) (Enterococcus sp.; inoculum 5×10^5 CFU/mL, strain ATCC 29212) | MIC Enterococcus faecalis (GC 2242) (Enterococcus sp.; inoculum 5×10^5 CFU/mL, strain GC 2242) | MIC Enterococcus faecium (GC 2243) (Enterococcus sp.; inoculum 5×10^5 CFU/mL, strain GC 2243) | MIC Enterococcus faecalis (GC 4552) (Enterococcus sp.; inoculum 5×10^5 CFU/mL, strain GC 4552) | MIC Enterococcus faecalis (GC 4553) (Enterococcus sp.; inoculum 5×10^5 CFU/mL, strain GC 4553) | MIC Enterococcus faecalis (GC 4554) (Enterococcus sp.; inoculum 5×10^5 CFU/mL, strain GC 4554) | MIC Enterococcus faecium (GC 4556) (Enterococcus sp.; inoculum 5×10^5 CFU/mL, strain GC 4556) | MIC Coagulase Negative Staphylococcus (GC 4551) (Staphylococcus sp.; strain GC 4551)
1 µg/mL: MIC Enterococcus avium (GC 4558) (Enterococcus sp.) | MIC Enterococcus avium (GC 4558) (Enterococcus sp.; inoculum 5×10^5 CFU/mL, strain GC 4558) | MIC Staphylococcus aureus (ATCC 29213) (Staphylococcus sp.; strain ATCC 29213) | MIC Staphylococcus aureus (GC 3053) (Staphylococcus sp.; strain GC 3053) | MIC Staphylococcus aureus (GC 4541) (Staphylococcus sp.; strain GC 4541) | MIC Staphylococcus aureus (GC 4542) (Staphylococcus sp.; strain GC 4542) | MIC Staphylococcus aureus-SMITH (GC 4543) (Staphylococcus sp.; strain GC 4543) | MIC Staphylococcus aureus (GC 4544) (Staphylococcus sp.; strain GC 4544) | MIC Staphylococcus aureus (GC 4545) (Staphylococcus sp.; strain GC 4545) | MIC Staphylococcus haemolyticus (GC 4546) (Staphylococcus sp.; strain GC 4546) | MIC Coagulase Negative Staphylococcus (GC 4547) (Staphylococcus sp.; strain GC 4547)
2 µg/mL: MIC Enterococcus faecalis (GC 2691) (Enterococcus sp.) | MIC Enterococcus faecalis (GC 3059) (Enterococcus sp.) | MIC Enterococcus faecalis (GC 6189) (Enterococcus sp.) | MIC Enterococcus faecium (GC 4557) (Enterococcus sp.) | MIC Enterococcus faecalis (GC 2691) (Enterococcus sp.; inoculum 5×10^5 CFU/mL, strain GC 2691) | MIC Enterococcus faecalis (GC 3059) (Enterococcus sp.; inoculum 5×10^5 CFU/mL, strain GC 3059) | MIC Enterococcus faecium (GC 4557) (Enterococcus sp.; inoculum 5×10^5 CFU/mL, strain GC 4557) | MIC Enterococcus faecalis (GC 6189) (Enterococcus sp.; inoculum 5×10^5 CFU/mL, strain GC 6189) | MIC Staphylococcus aureus (GC 1131) (Staphylococcus sp.; strain GC 1131) | MIC Staphylococcus aureus (GC 3051) (Staphylococcus sp.; strain GC 3051) | MIC Escherichia coli (GC 4560) (Escherichia coli)
64 µg/mL: MIC Escherichia coli (GC 4559) (Escherichia coli)
<0.12 µg/mL: MIC Streptococcus agalactiae (GC 4564) (Streptococcus sp.) | MIC Streptococcus pneumoniae (ATCC 6301) (Streptococcus sp.) | MIC Streptococcus pneumoniae (GC 1894) (Streptococcus sp.) | MIC Streptococcus pneumoniae (GC 4565) (Streptococcus sp.) | MIC Streptococcus pyogenes (GC 4563) (Streptococcus sp.) | MIC Streptococcus pneumoniae (ATCC 6301) (Streptococcus sp.; inoculum 5×10^5 CFU/mL, strain ATCC 6301) | MIC Streptococcus pneumoniae (GC 1894) (Streptococcus sp.; inoculum 5×10^5 CFU/mL, strain GC 1894) | MIC Streptococcus pyogenes (GC 4563) (Streptococcus sp.; inoculum 5×10^5 CFU/mL, strain GC 4563) | MIC Streptococcus agalactiae (GC 4564) (Streptococcus sp.; inoculum 5×10^5 CFU/mL, strain GC 4564) | MIC Streptococcus pneumoniae (GC 4565) (Streptococcus sp.; inoculum 5×10^5 CFU/mL, strain GC 4565)
